Test results reported in patent US20220387392A1, “METHODS AND COMPOSITIONS RELATED TO THE USE OF ERGOTHIONEINE” (priority 2020, published 2022).

Assays:
[1] = test system: primary neonatal fibroblast cells; assay: MTT assay, cytotoxicity of ergothioneine; type: cell-based, human; conditions: all concentrations tested (0.04, 0.1, 0.3, and 1.0 mg/ml); 72 hours and one week; with and without 10 μM H2O2
Experimental: (§1) Primary cultures of human neonatal dermal fibroblasts (ATCC® PCS-201-010™) were established under standard culture conditions. Cells were seeded at 3×10^3 cells/cm^2 and were grown and maintained in Fibroblast Medium (Innoprot).
The MTT assay is a colorimetric assay that uses a yellow tetrazolium salt (3-(4,5-dimethylthiazol-2-yl)-2,5-diphenyltetrazolium bromide, or MTT) to measure metabolic activity of cells as a proxy for cell viability. MTT reduction rate is an indicator of the functional integrity of the mitochondria and as a result, of cellular viability. To determine the cytotoxicity of ergothioneine on primary neonatal fibroblast cells, the cells were seeded in 96 well plates (Nunc) at 0.35×10^4 cells/plate and 0.5×10^4 cells/plate for 72 hours and 1-week treatment. After 24 hours from seeding, the cells were washed once with phosphate-buffered saline (PBS) and treated with the respective compounds in cell culture media. Ergothioneine was dissolved in dimethyl sulfoxide (DMSO). […] Each condition was tested in triplicates with and without 10 μM H2O2. For positive and negative controls, 8 mM methyl methane sulfonate (MMS) and DMSO 100% were used, respectively. […] Absorbance was measured using an Envision multiplate reader at a wavelength of 570 nm.
The percentage of cell death was calculated using the following equation: […]

[2] = test system: primary neonatal fibroblast cells; assay: Morphological analysis through optical microscopy visualization; type: cell-based, human; conditions: concentrations of up to 1.0 mg/ml
[3] = test system: neonatal human fibroblast cells; assay: Proliferative analysis (population doubling, growth curves); type: cell-based
Experimental: (§2) Primary cultures of neonatal human fibroblast cells were established. Cells were seeded at 5×10^3 cells/cm^2), in Fibroblast Medium (Innoprot). Media was renewed every 2 to 3 days and cells were passaged at sub-confluence (70-80%) every 7 days. Cells were expanded during eight weeks under standard and oxidative (10 μM H2O2) cell culture condition as described previously. Different concentrations of ergothioneine (0.04, 0.3, 0.1, and 1.0 mg/ml) or vehicle control were added to the treated or control cells, respectively. Treatment dilutions were prepared fresh in each passage with fresh media. Cell growth was monitored for each condition by counting cell numbers at each passage using a Countess™ cell counter (Invitrogen). Population doubling (PD) was calculated with the formula PD=3.322(Log(Cf)−Log (Ci))+X (where, Cf: Final concentration; Ci: initial concentration; X: PD last passage). One PD is equivalent to one round of cell replication.
(§3) Each treatment was tested in triplicate and in different plates. Each plate contained a control sample. Frozen vials were obtained at different time points for analysis of relative telomerase activity and telomere length.

[4] = test system: telomerase; assay: Relative telomerase activity (Q-TRAP); type: cell-based, human
Experimental: The quantitative polymerase chain reaction (PCR)-based telomeric repeat amplification protocol (Q-TRAP) is a sensitive and accurate PCR-based assay that enables the measurement of telomerase activity. Cellular pellets from neonatal fibroblast cells were lysed using the CHAPS (3-cholamidopropyl dimethylammonio 1-propanesulfonate) lysis buffer for protein extraction. Samples were stored at 4° C. and were used within 24 hours. Protein quantification was performed for each sample using Biorad protein assay (Bio-Rad Kit 50000002). A minimum of 0.3 mg/ml protein concentration was required to proceed with the analysis of the samples. Telomerase protein extracts are then incubated at 27° C. for 30 min to allow the telomerase in the protein extracts to elongate the TS primer by adding TTAGGG repeat sequences. Following the enzymatic reaction, telomerase extension products are then amplified and quantified by real-time qPCR using SYBR Green (a green fluorescent cyanine dye). PCR was initiated at 95° C. for 10 min, followed by a 40-cycle amplification (95° C. for 15 s, 60° C. for 60 s) and a melt curve stage step. Reactions were monitored and analyzed with QuantStudio 5 (Applied Biosystems). Telomerase activity in cell lines or samples is calculated based on the threshold cycle (Ct). All samples were run in triplicate.
The telomerase-positive standard dilution series is plotted against the telomere protein concentration (r^2>0.9) as a standard curve of Ct values. The standard curve is generated by graphing threshold cycles (Ct values) of HeLa cell line standards against log of 1000, 333, 111, 37.03, 12.34, 4.11, 1.37 and 0.45 ng of protein (whole cell extract).

[5] = test system: human neonatal dermal fibroblasts; assay: Telomere length measurement by Telomere Analysis Technology (TAT, HT Q-FISH); type: cell-based; conditions: for proportion of short telomeres (<3 kbp): control 8.1±0.6
Experimental: as §1, §2, §3
All telomere length measurements were performed using Life Length's proprietary Telomere Analysis Technology (TAT®). TAT® measures telomere length using a high-throughput (HT) Q-FISH (quantitative fluorescent in situ hybridization) technique as previously described. This method is based on a quantitative fluorescence in-situ hybridization method modified for measuring individual chromosomes of cells in interphase. In brief, telomeres are hybridized with a fluorescent Peptide Nucleic Acid probe (PNA) that recognizes three telomere repeats (sequence: Alexa488-OO-CCCTAACCCTAACCCTAA, purchased from Panagene). The images of the nuclei and telomeres are captured by a high-content screen system. The intensity of the fluorescent signal from the telomeric PNA probes that hybridize to a given telomere is proportional to the length of that telomere. The intensities of fluorescence are translated to base pairs (bp) through a standard regression curve which is generated using control cell lines with known telomere length. TAT® not only measures telomere length in absolute base pair units, it also provides an assessment of the distribution, 50th and 20th percentiles of telomere length and the percent of short telomeres, allowing for a more comprehensive analysis of each sample. All samples are run in quintuplicate.
Results obtained from each treatment and at each time point were compared with the appropriate control group using Student's t test (independent samples t-test).

[6] = ingested; rats; cited from earlier work
[7] = humans, supplementation for 7 days, cited from earlier work

For `C[N+](C)(C)[C@@H](Cc1c[nH]c(=S)[nH]1)C(=O)[O-]` [ergothioneine], the cell death [1] was under 20%, the “deleterious effects by morphological analysis” value [2] was “did not produce any deleterious effects” and the “proliferative capacity vs control” value ([3]; oxidative culture conditions (10 μM H2O2), 1.0 or 0.3 mg/ml, after Week 4) was “increase in their proliferative capacity”. For the same compound, the “proliferative capacity vs control” value ([3]; standard culture conditions, 0.04-1.0 mg/ml, 8 weeks) was “no differences”, the “telomerase activity vs control cells” value ([4]; 6 hours, all dose levels) was “significantly lower” and the “telomerase activity, higher compared with control cells” value ([4]; 24 hours, all dose levels, p<0.05) was 50-90%. The “telomerase activity vs control” value ([4]; 48 hours, statistically significant only for 0.04 mg/ml and 1.0 mg/ml) was “still elevated”, the “telomerase activity vs control” value ([4]; 72 hours) was “not significantly different” and the “effect on telomeres (FIG. 7D)” value ([5]; dose of 0.3 mg/ml) was “telomere lengthening”. The “median telomere length vs control” value ([5]; oxidative conditions (10 μM H2O2), Week 4, 0.1 or 1.0 mg/ml, p<0.05) was “higher median telomere length”, the median telomere length ([5]; oxidative conditions (10 μM H2O2), Week 8, 0.04 mg/ml, control 8725±94) was 9015±112 bp and the median telomere length ([5]; oxidative conditions (10 μM H2O2), Week 8, 0.1 mg/ml, control 8725±94) was 8794±212 bp. For the same compound, the median telomere length ([5]; oxidative conditions (10 μM H2O2), Week 8, 0.3 mg/ml, control 8725±94 bp, in bp) was 9068±24, the median telomere length ([5]; oxidative conditions (10 μM H2O2), Week 8, 1.0 mg/ml, control 8725±94) was 8997±171 bp and the “20th percentile telomere length vs control” value ([5]; oxidative conditions, Week 4, 0.1, 0.3, or 1.0 mg/ml, p<0.05) was “greater telomere length”. For the same compound, the “reduction of telomere shortening rate” value ([5]; oxidative conditions, Week 4, all concentrations, significant for 0.04, 0.1 and 1.0 mg/ml) was 27-52%, the “percentage of short telomeres (<3 kbp) vs control” value ([5]; oxidative conditions, Week 4 and Week 8, all concentrations) was “reduced the percentage of short telomeres” and the “20th percentile telomere length vs control” value ([5]; oxidative conditions, Week 8, all concentrations) was “significant increases”. For the same compound, the “telomere shortening rate vs control” value ([5]; oxidative conditions, Week 8, did not reach statistical significance) was “appeared to be lower”, the “20th percentile telomere length vs control” value ([5]; standard conditions, Week 4, 0.3 mg/ml or 1.0 mg/ml) was “greater” and the “proportion of short telomeres (<3 kbp)” value ([5]; standard conditions, Week 4, 0.3 mg/ml) was 7.3±1.1%. The median telomere length ([5]; standard conditions, Week 4, 0.3 mg/ml, control 9378±107) was 9637±340 bp, the “proportion of short telomeres (<3 kbp)” value ([5]; standard conditions, Week 4, 1.0 mg/ml) was 6.8±1.0% and the median telomere length ([5]; standard conditions, Week 4, 1.0 mg/ml, control 9378±107) was 9745±206 bp. For the same compound, the “telomere shortening rate vs control” value ([5]; standard conditions, Week 4, 1.0 mg/ml, p=0.09) was “trend for decreased telomere shortening rate”, the “telomere shortening rate vs control” value ([5]; standard conditions, Week 4, 0.1 or 0.3 mg/ml, normalized by population doublings) was “significantly lower” and the “protective effects on telomeres seen at Week 4” value ([5]; standard conditions, Week 8) was “no longer present”. The whole-body half-life [6] was 1 month, the “concentration in whole blood” value ([7]; approximately) was 30 to 40 µM and the concentration in plasma [7] was “approximately 3 μM”.
